In assay [1] the test system is NF-κB pathway (SEAP) in THP1-Dual cells. Description: THP-1 Dual cell SEAP assay (L18-MDP stimulated). The assay is classed as cell-based. To be noted: read-out: NF-κB THP1 IC50 bin. The method, then:
THP1-Dual™ cells (InvivoGen Cat #thpd-nfis) allow simultaneous assessment of the NF-κB pathway, by monitoring the activity of secreted embryonic alkaline phosphatase (SEAP) as well as the IRF pathway, by assessing the activity of a secreted luciferase (Lucia). Cells were cultured according to manufacturers' recommendations. For the assay, cell concentration was adjusted to 7.14×10^5 cells/mL in assay media (RPMI 1640, 2 mM L-Glutamine, 25 mM HEPES, 10% fetal bovine serum (heat-inactivated for 30 min at 56° C.), Pen-Strep (100 U/mL)) and 35 µL of cell suspension (˜25,000 cells) per well were added to a flat bottom 384-well plate (white opaque). Plate was centrifuged at 300 g for 2 min, compounds were added in serial dilution series according to the plate layout (volumes ˜500 nL-0.0152 nL) and plate was incubated at 37° C. in 5% CO2 for 30 min. Using assay media, a L18-MDP stock solution, that results in a final concentration of 10 ng/mL L18-MDP in each well when adding 15 μL to each well, was prepared. 15 μL of L18-MDP stock solution was added to each well, while 15 μL of assay media was added to the negative control wells. Plates were subsequently incubated at 37° C. in 5% CO2 overnight (20-24 h).
For the SEAP assay: without disturbing the cells at the bottom of the well, 15 μL supernatant was transferred to a clear 384-well flat bottom plate and 35 μL QUANTI-Blue Solution per well was added. Following a 2 h incubation at 37° C., the optical density (OD) was measured at 620-655 nm using a microplate reader (PheraStar FS microplate reader with protocol for OD 620-655 nm).
Values of media-only wells were subtracted and % inhibition for each compound concentration relative to the DMSO/L18-MDP-treated controls was calculated. Inhibition values+/−SD were fitted by non-linear regression using Prism software (GraphPad PRISM Software) to calculate IC50 values.

For assay [2], the target named is T1, binding of His-XIAP(BIR2)-avi fusion protein to GST-RIPK2 fusion protein (RIPK2/XIAP) (Homo sapiens, UniProt O43353).
T1 construct: made in house; host or cells: baculovirus infected Sf9 cells
T1 sequence (O43353 1-310 limits assumed): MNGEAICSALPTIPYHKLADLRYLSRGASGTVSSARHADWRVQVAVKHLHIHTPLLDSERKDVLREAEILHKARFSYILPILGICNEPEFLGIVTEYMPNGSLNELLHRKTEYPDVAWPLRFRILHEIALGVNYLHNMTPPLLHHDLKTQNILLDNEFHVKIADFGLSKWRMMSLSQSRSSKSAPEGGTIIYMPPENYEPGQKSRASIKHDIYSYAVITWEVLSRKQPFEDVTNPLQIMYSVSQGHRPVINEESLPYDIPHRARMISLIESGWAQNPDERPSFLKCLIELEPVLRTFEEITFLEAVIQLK
Put plainly: RIPK2-XIAP binding competition PPI assay (TR-FRET). To be noted: RIPK2/XIAP binding competition PPI assay; for Emax: read-out: PPI Amax bin; for pIC50: read-out: PPI IC50 bin. An excerpt: The ability of selected compounds of Formula (I) to inhibit the binding of an His-XIAP(BIR2)-avi fusion protein to a GST-RIPK2 fusion protein was quantified employing the TR-FRET-based competition assay as described in the following paragraphs.
Recombinant fusion protein of N-terminal Glutathione-S-Transferase (GST) and a fragment of human RIPK2 (amino acids 1-310 of accession number 043353), expressed in baculovirus infected Sf9 cells, purified via glutathione affinity chromatography, was used as GST-RIPK2 fusion protein. Recombinant fusion protein of N-terminal 6×Histidine (His), a fragment of human XIAP (amino acids 152-231 of accession number P98170), and C-terminal avi tag, expressed in baculovirus infected Sf9 cells, purified via Nickel NTA affinity chromatography, was used as the His-XIAP(BIR2)-avi fusion protein.
For the assay, a working solution of 1 nM GST-RIPK2, 25 nM His-XIAP(BIR2)-avi, 6 nM Anti-His-XL665 […] (Revvity Catalogue No. 61HISXLB), and 0.5 nM Anti-GST-Tb (Revvity Catalogue No. 61GSTTLB) in 25 mM Tris-HCl 7.5, 0.5 mM ethylene glycol-bis(2-aminoethylether)-N,N,N′,N′-tetraacetic acid (EGTA), 10 mM magnesium chloride (MgCl2), 2.5 mM dithiothreitol (DTT), 0.01% (w/v) bovine serum albumin (BSA), 0.005% (w/v) Pluronic F-127 (Sigma), 0.5 mM sodium ortho-vanadate, 5 mM β-Glycerophosphate disodium salt hydrate (BGP) was prepared. 50 nL of a 100-fold concentrated solution of each test compound in DMSO was dispensed via acoustic dispensing into a white low volume 384-well microtiter plate (Perkin Elmer Catalogue No. 6008280). Subsequently, 5 μL of the assay working solution were added.
The resulting mixture was incubated 120 min at 23° C. Subsequently, the amount of complex formed by the GST-RIPK2, XIAP(BIR2)-avi, Anti-His-XL665, and Anti-GST-Tb was evaluated by measurement of the resonance energy transfer from the Tb-cryptate to the XL665. Therefore, the fluorescence emissions at 520 nm and 665 nm after excitation at 337 nm were measured in a TR-FRET reader, e.g. a Pherastar FS (BMG Labtechnologies, Offenburg, Germany) or an Envision (PerkinElmer). The ratio of the emissions at 665 nm and at 520 nm was taken as the measure of the amount of the complex. The data were normalized (assay reaction without inhibitor=0% activity, 50 nM of GSK583=−100% activity).
For the RIPK2/XIAP binding competition PPI assay Amax values, “A” denotes an Amax of ≥80%; “B” denotes an Amax of 80%>B≥55; “C” denotes an Amax of 55%>C>30; and “D” denotes an Amax of ≤30%.
For orientation: Time-resolved FRET reads energy transfer from a long-lived donor to a nearby acceptor.

Structures are written as SMILES. pIC50: −log10 of the molar value. Read-outs that look alike come from different tables or passages of the source. Some results are limits rather than exact numbers.

Usually pIC50 stands for −log10 of the IC50, conventionally taken in molar units.

Regarding `COc1cc2ncc(-c3cc(F)c(OC)c(NS(=O)(=O)c4cc(C)sn4)c3)n2cc1S(=O)(=O)C(C)(C)C` [Example 292, N-(5-(6-(tert-butylsulfonyl)-7-methoxyimidazo[1,2-a]pyridin-3-yl)-3-fluoro-2-methoxyphenyl)-5-methylisothiazole-3-sulfonamide], the pIC50 was 6.60 to 7.30 in assay [1] (Homo sapiens, THP1-Dual) and above 9.00 in assay [2]. Besides, the Emax in assay [2] (Amax) was in the range of 30 to 55%.

`COc1cc2ncc(-c3cc(NS(=O)(=O)c4cnn(C)c4)c(OC)c(OC)c3)n2cc1N1CCCC1=O` [Example 273, N-(2,3-dimethoxy-5-(7-methoxy-6-(2-oxopyrrolidin-1-yl)imidazo[1,2-a]pyridin-3-yl)phenyl)-1-methyl-1H-pyrazole-4-sulfonamide]: the pIC50 in assay [1] (Homo sapiens, THP1-Dual) was 6.00 to 6.60; in assay [2] it was 8.60 to 9.00. For the same molecule, the Emax in assay [2] (Amax) is above 80%.

Consider `CC(F)(CO)COc1cc2ncc(-c3cc(Cl)c(N)nc3F)n2cc1S(=O)(=O)C(C)(C)C` (single isomer, unassigned) [Example 266], for which the pIC50 in assay [1] was 6.60 to 7.30; in assay [2], 8.60 to 9.00. In assay [2] (Amax), the “PPI Amax bin” value is recorded as “A (an Amax of ≥80%)”.

On to `COc1c(F)cc(-c2cnc3cc(OC[C@H](C)O)c(S(=O)(=O)C(C)(C)C)cn23)cc1NS(C)(=O)=O` [Example 269, (S)-N-(5-(6-(tert-butylsulfonyl)-7-(2-hydroxypropoxy)imidazo[1,2-a]pyridin-3-yl)-3-fluoro-2-methoxyphenyl) methanesulfonamide], for which the negative logarithm of the IC50 (pIC50) in assay [1] (Homo sapiens, THP1-Dual) is above 7.30; in assay [2], above 9.00. The Emax in assay [2] (Amax) lay within 55 to 80%.

On to `COc1cc2ncc(-c3cc(F)c(OC)c(NS(=O)(=O)c4cc(C)ns4)c3)n2cc1S(=O)(=O)C(C)(C)C` [Example 289, N-(5-(6-(tert-butylsulfonyl)-7-methoxyimidazo[1,2-a]pyridin-3-yl)-3-fluoro-2-methoxyphenyl)-3-methylisothiazole-5-sulfonamide], for which the pIC50 is 6.60 to 7.30 in assay [1] (Homo sapiens, THP1-Dual) and above 9.00 in assay [2]. In addition, in assay [2] (Amax), the Emax was in the range of 30 to 55%.

`C[C@H](O)COc1cc2ncc(-c3ccc(N)nc3F)n2cc1S(=O)(=O)C(C)(C)C` [Example 267, (S)-1-((3-(6-amino-2-fluoropyridin-3-yl)-6-(tert-butylsulfonyl)imidazo [1,2-a]pyridin-7-yl)oxy)propan-2-ol]: the pIC50 was below 6.00 in assay [1] (Homo sapiens, THP1-Dual) and 7.70 to 8.60 in assay [2]. Further, the Emax in assay [2] (Amax) is above 80%.

With `COc1cc2ncc(-c3cc(F)c(OC)c(NS(=O)(=O)c4coc(C)n4)c3)n2cc1S(=O)(=O)C(C)(C)C` [Example 293, N-(5-(6-(tert-butylsulfonyl)-7-methoxyimidazo[1,2-a]pyridin-3-yl)-3-fluoro-2-methoxyphenyl)-2-methyloxazole-4-sulfonamide], the pIC50 in assay [1] (Homo sapiens, THP1-Dual) is above 7.30; in assay [2] it was above 9.00. Also, in assay [2] (Amax), the Emax lay in the range of 30 to 55%.

As to `COc1cc2ncc(-c3cc(C)c(OC)c(NS(=O)(=O)c4cnn(C)c4)c3)n2cc1S(=O)(=O)C(C)(C)C` [Example 286, N-(5-(6-(tert-butylsulfonyl)-7-methoxyimidazo[1,2-a]pyridin-3-yl)-2-methoxy-3-methylphenyl)-1-methyl-1H-pyrazole-4-sulfonamide], the pIC50 in assay [1] (Homo sapiens, THP1-Dual) is 6.60 to 7.30; in assay [2], above 9.00. Besides, in assay [2] (Amax), the Emax is above 80%.

For the molecule `COc1cc2ncc(-c3cc(F)c(OC)c(NS(=O)(=O)c4cnc(C)o4)c3)n2cc1S(=O)(=O)C(C)(C)C` [Example 290, N-(5-(6-(tert-butylsulfonyl)-7-methoxyimidazo[1,2-a]pyridin-3-yl)-3-fluoro-2-methoxyphenyl)-2-methyloxazole-5-sulfonamide], the pIC50 in assay [1] (Homo sapiens, THP1-Dual) is below 6.00; in assay [2], below 7.70. Moreover, the Emax in assay [2] (Amax) was below 30%.

On to `COc1cc2ncc(-c3cc(F)c(OC)c(NS(=O)(=O)c4cc(C)no4)c3)n2cc1S(=O)(=O)C(C)(C)C` [Example 288, N-(5-(6-(tert-butylsulfonyl)-7-methoxyimidazo[1,2-a]pyridin-3-yl)-3-fluoro-2-methoxyphenyl)-3-methylisoxazole-5-sulfonamide], for which the pIC50 in assay [1] (Homo sapiens, THP1-Dual) was below 6.00; in assay [2], below 7.70. In addition, the Emax in assay [2] (Amax) is below 30%.

As for `COc1cc2ncc(-c3cc(Cl)c(OC)c(NS(=O)(=O)c4cnn(C)c4)c3)n2cc1S(=O)(=O)C(C)(C)C` [Example 283, N-(5-(6-(tert-butylsulfonyl)-7-methoxyimidazo[1,2-a]pyridin-3-yl)-3-chloro-2-methoxyphenyl)-1-methyl-1H-pyrazole-4-sulfonamide], the pIC50 in assay [1] (Homo sapiens, THP1-Dual) is above 7.30; in assay [2], above 9.00. For the same molecule, in assay [2] (Amax), the Emax was above 80%.

`COc1cc2ncc(-c3cc(F)c(OC)c(NCc4cnn(C)c4)c3)n2cc1S(=O)(=O)C(C)(C)C` [Example 301, 5-(6-(tert-butylsulfonyl)-7-methoxyimidazo[1,2-a]pyridin-3-yl)-3-fluoro-2-methoxy-N-((1-methyl-1H-pyrazol-4-yl)methyl)aniline]: the pIC50 was 6.60 to 7.30 in assay [1] (Homo sapiens, THP1-Dual) and above 9.00 in assay [2]. The Emax in assay [2] (Amax) is 55 to 80%.

In the case of `COc1cc2ncc(-c3cc(NS(=O)(=O)c4cnn(C)c4)c(OC)c(OC)c3)n2cc1N1CC2(COC2)CC1=O` [Example 271, N-(2,3-dimethoxy-5-(7-methoxy-6-(7-oxo-2-oxa-6-azaspiro[3.4]octan-6-yl)imidazo[1,2-a]pyridin-3-yl)phenyl)-1-methyl-1H-pyrazole-4-sulfonamide], the pIC50 in assay [1] (Homo sapiens, THP1-Dual) is below 6.00; in assay [2] it was 7.70 to 8.60. Also, the Emax in assay [2] (Amax) was above 80%.

`CC(F)(CO)COc1cc2ncc(-c3cc(Cl)c(N)nc3F)n2cc1S(=O)(=O)C(C)(C)C` (single isomer, unassigned) [Example 265]: the pIC50 was 6.60 to 7.30 in assay [1] (Homo sapiens, THP1-Dual) and 8.60 to 9.00 in assay [2]. The Emax in assay [2] (Amax) was above 80%.

For the molecule `COc1cc2ncc(-c3cc(F)c(OC)c(NS(=O)(=O)c4c(C)nn(C)c4C)c3)n2cc1S(=O)(=O)C(C)(C)C` [Example 139, N-(5-(6-(tert-butylsulfonyl)-7-methoxyimidazo[1,2-a]pyridin-3-yl)-3-fluoro-2-methoxyphenyl)-1,3,5-trimethyl-1H-pyrazole-4-sulfonamide], the pIC50 in assay [1] (Homo sapiens, THP1-Dual) is below 6.00; in assay [2], below 7.70. Further, in assay [2] (Amax), the Emax was in the range of 55 to 80%.

On to `COc1cc2ncc(-c3cc(F)c(OC)c(NS(=O)(=O)c4csc(C)n4)c3)n2cc1S(=O)(=O)C(C)(C)C` [Example 291, N-(5-(6-(tert-butylsulfonyl)-7-methoxyimidazo[1,2-a]pyridin-3-yl)-3-fluoro-2-methoxyphenyl)-2-methylthiazole-4-sulfonamide], for which the pIC50 in assay [1] (Homo sapiens, THP1-Dual) is above 7.30; in assay [2], above 9.00. In addition, the Emax in assay [2] (Amax) is 55 to 80%.
